These results are taken from PubChem BioAssay AID248 (DTP/NCI, 2004).

For the assay, the system named is L1210 leukemia ip in BDF1 mice, survival T/C. The assay is described as follows: NCI In Vivo Anticancer Drug Screen. Data for tumor model L1210 Leukemia (intraperitoneal) in B6D2F1 (BDF1) mice. To be noted: endpoint: mean survival time, higher = longer survival. The method in brief:
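Mice bearing the transplanted tumor received compound or vehicle. Survival of the treated group was divided by that of the vehicle-treated control group to give the ratio.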

[1] abbreviates: dose: 100.0 mg/kg/injection, schedule: Q04DX003 (ip), vehicle: saline with Tween-80.
Setting [2] is: dose: 200.0 mg/kg/injection, schedule: Q04DX003 (ip), vehicle: saline with Tween-80.
[3] abbreviates: dose: 400.0 mg/kg/injection, schedule: Q01DX009 (ip), vehicle: saline with Tween-80.
Where [4] appears, read: dose: 400.0 mg/kg/injection, schedule: Q04DX003 (ip), vehicle: saline with Tween-80.
[5] abbreviates: dose: 25.0 mg/kg/injection, schedule: Q04DX003 (ip), vehicle: saline.
[6] abbreviates: dose: 50.0 mg/kg/injection, schedule: Q04DX003 (ip), vehicle: saline.
Setting [7] is: dose: 100.0 mg/kg/injection, schedule: Q04DX003 (ip), vehicle: saline.
Setting [8] is: dose: 100.0 mg/kg/injection, schedule: Q01DX001 (ip), vehicle: carboxymethylcellulose (CMC).
Setting [9] is: dose: 200.0 mg/kg/injection, schedule: Q01DX001 (ip), vehicle: carboxymethylcellulose (CMC).
The mark [10] stands for this setting: dose: 400.0 mg/kg/injection, schedule: Q01DX001 (ip), vehicle: carboxymethylcellulose (CMC).
The mark [11] stands for this setting: dose: 100.0 mg/kg/injection, schedule: Q04DX002 (ip), vehicle: saline with Tween-80.
The mark [12] stands for this setting: dose: 200.0 mg/kg/injection, schedule: Q04DX002 (ip), vehicle: saline with Tween-80.
[13] abbreviates: dose: 400.0 mg/kg/injection, schedule: Q04DX002 (ip), vehicle: saline with Tween-80.
[14] abbreviates: dose: 50.0 mg/kg/injection, schedule: Q01DX009 (ip), vehicle: saline with Tween-80.

Molecules are shown by their SMILES. Values joined by “and” are separate entries in the source; they are usually repeats but may differ in a detail not shown here. Equal entries are not always repeated. Inconclusive results and toxic doses are left out.

In the case of `OC(c1ccc(Br)cc1)(c1cccs1)C1CC1` (stereo not given), the T/C reads like this: (dose: 100.0 mg/kg/injection, schedule: Q01DX009 (ip), vehicle: saline with Tween-80) 98 % of control; under setting [1], 103 % of control; (dose: 200.0 mg/kg/injection, schedule: Q01DX009 (ip), vehicle: saline with Tween-80) 98 % of control; under setting [2], 100 % of control; under setting [3], 98 % of control; under setting [4], 97 % of control.
As for `COc1cccc(NC(=O)N(CCCl)N=O)c1`, the T/C (dose: 4.5 mg/kg/injection, schedule: Q01DX001 (ip), vehicle: carboxymethylcellulose (CMC)) is 122 % of control; the T/C (dose: 18.0 mg/kg/injection, schedule: Q01DX001 (ip), vehicle: carboxymethylcellulose (CMC)) is 159 % of control; the T/C (dose: 26.0 mg/kg/injection, schedule: Q01DX001 (ip), vehicle: carboxymethylcellulose (CMC)) is 151 % of control; the T/C (dose: 40.0 mg/kg/injection, schedule: Q01DX001 (ip), vehicle: carboxymethylcellulose (CMC)) was 188 % of control; the T/C (dose: 60.0 mg/kg/injection, schedule: Q01DX001 (ip), vehicle: carboxymethylcellulose (CMC)) was 87 % of control; the T/C (dose: 93.0 mg/kg/injection, schedule: Q01DX001 (ip), vehicle: carboxymethylcellulose (CMC)) was 87 % of control.
On to `CC(=O)OC1CC(n2cc(C)c(=O)[nH]c2=O)OC1COP(=O)(N1CC1(C)C)N1CC1(C)C` (stereo not given), for which the T/C was 110 % of control (dose: 50.0 mg/kg/injection, schedule: Q04DX002 (ip), vehicle: saline); 112 % of control (dose: 100.0 mg/kg/injection, schedule: Q04DX002 (ip), vehicle: saline); 123 % of control (dose: 200.0 mg/kg/injection, schedule: Q04DX002 (ip), vehicle: saline).
In the case of `COc1cc2c(cc1OC)C13CCN4CC5=CCOC6CCN2C1C6C5CC43` (stereo not given), the T/C under setting [5] was 101 % of control, the T/C under setting [6] is 109 % of control, the T/C under setting [1] is 86 % of control and the T/C under setting [7] was 106 % of control.
For the compound `COc1ccc(CCNC(=O)Cc2ccc(O)cc2)cc1OC`, the T/C runs as follows: under setting [8], 100 % of control; under setting [9], 102 % of control; under setting [10], 96 % of control.
`O=C1OC2C(Br)CC(Br)CC2C=C1c1ccc([N+](=O)[O-])cc1` (stereo not given): the T/C was 90 % of control under setting [11], 90 % of control under setting [12] and 93 % of control under setting [13].
Turning to `O=C(NNC(=O)c1ccccc1O)c1ccccc1`, the T/C by setting is: under setting [11], 93 % of control; under setting [12], 93 % of control; under setting [13], 97 % of control.
As to `c1ccc2c(c1)ccc1ccc3cccc[n+]3c12`, the T/C is 93 % of control (dose: 1.25 mg/kg/injection, schedule: Q01DX001 (ip), vehicle: saline); 102 % of control (dose: 2.5 mg/kg/injection, schedule: Q01DX001 (ip), vehicle: saline); 108 % of control (dose: 5.0 mg/kg/injection, schedule: Q01DX001 (ip), vehicle: saline); 102 % of control (dose: 10.0 mg/kg/injection, schedule: Q01DX001 (ip), vehicle: saline).
Consider `CN(C)N=Nc1ccc(CCC(=O)NN)cc1`, for which the T/C was 111 % of control (dose: 20.0 mg/kg/injection, schedule: Q01DX Z (ip), vehicle: saline); 114 % of control (dose: 30.0 mg/kg/injection, schedule: Q01DX Z (ip), vehicle: saline); 91 % of control (dose: 67.0 mg/kg/injection, schedule: Q01DX Z (ip), vehicle: saline).
`NC(CCC1SCCS1)C(=O)O` (stereo not given): the T/C runs as follows: under setting [8], 104 % of control; under setting [9], 96 % of control; under setting [10], 98 % of control.
As for `CCOc1ccc(NC(=O)CCCCCCCCC(=O)Nc2ccc(OCC)cc2)cc1`, the T/C is, setting by setting: under setting [14], 98 % of control; (dose: 100.0 mg/kg/injection, schedule: Q01DX001 (ip), vehicle: saline with Tween-80) 96 % of control; under setting [11], 95 % of control and 110 % of control; under setting [1], 88 % of control; (dose: 200.0 mg/kg/injection, schedule: Q01DX001 (ip), vehicle: saline with Tween-80) 91 % of control; under setting [12], 100 % of control and 89 % of control. The T/C by setting is: under setting [2], 96 % of control; (dose: 400.0 mg/kg/injection, schedule: Q01DX001 (ip), vehicle: saline with Tween-80) 88 % of control; under setting [3], 100 % of control and 108 % of control; under setting [13], 94 % of control and 97 % of control; under setting [4], 91 % of control.
With `CC(=O)NNS(=O)(=O)c1ccccc1`, the T/C (dose: 100.0 mg/kg/injection, schedule: Q01DX001 (ip), vehicle: Klucel (hydroxypropylcellulose) (HPC)) was 102 % of control; the T/C (dose: 100.0 mg/kg/injection, schedule: Q01DX009 (ip), vehicle: Klucel (hydroxypropylcellulose) (HPC)) is 106 % of control; the T/C (dose: 200.0 mg/kg/injection, schedule: Q01DX001 (ip), vehicle: Klucel (hydroxypropylcellulose) (HPC)) was 100 % of control; the T/C (dose: 200.0 mg/kg/injection, schedule: Q01DX009 (ip), vehicle: Klucel (hydroxypropylcellulose) (HPC)) was 95 % of control; the T/C (dose: 400.0 mg/kg/injection, schedule: Q01DX001 (ip), vehicle: Klucel (hydroxypropylcellulose) (HPC)) is 105 % of control.
For `CCC1(CC)N=C2OCCN2C1=O`, the T/C was 97 % of control (dose: 12.5 mg/kg/injection, schedule: Q04DX003 (ip), vehicle: saline with Tween-80); 95 % of control (dose: 25.0 mg/kg/injection, schedule: Q04DX003 (ip), vehicle: saline with Tween-80); 97 % of control (dose: 50.0 mg/kg/injection, schedule: Q04DX003 (ip), vehicle: saline with Tween-80); 94 % of control under setting [1]; 91 % of control and 92 % of control under setting [2]; 106 % of control (dose: 300.0 mg/kg/injection, schedule: Q04DX003 (ip), vehicle: saline with Tween-80).
As for `CC[N+](C)(CC)CCOC(=O)c1ccccc1Oc1ccc(C)cc1`, the T/C under setting [7] was 96 % of control.
As for `CCCSC1=C(N2CC2)C(=O)C(SCCC)=C(N2CC2)C1=O`, the T/C is 98 % of control (dose: 6.25 mg/kg/injection, schedule: Q04DX003 (ip), vehicle: saline); 104 % of control (dose: 12.5 mg/kg/injection, schedule: Q04DX003 (ip), vehicle: saline); 97 % of control under setting [5]; 103 % of control under setting [6]; 108 % of control under setting [7]; 116 % of control (dose: 200.0 mg/kg/injection, schedule: Q04DX003 (ip), vehicle: saline).
As to `CN(C)C=C1C(=O)NC(=O)NC1=O`, the T/C by setting is: (dose: 25.0 mg/kg/injection, schedule: Q01DX001 (ip), vehicle: saline) 96 % of control; (dose: 25.0 mg/kg/injection, schedule: Q01DX009 (ip), vehicle: saline) 95 % of control; (dose: 50.0 mg/kg/injection, schedule: Q01DX001 (ip), vehicle: saline) 103 % of control; (dose: 50.0 mg/kg/injection, schedule: Q01DX009 (ip), vehicle: saline) 106 % of control; (dose: 100.0 mg/kg/injection, schedule: Q01DX001 (ip), vehicle: saline) 102 % of control; (dose: 100.0 mg/kg/injection, schedule: Q01DX009 (ip), vehicle: saline) 106 % of control.
Take `CCOC(=O)c1ccc(N(CC(O)CN)S(=O)(=O)c2ccc(C)cc2)cc1` (stereo not given): the T/C reads like this: (dose: 25.0 mg/kg/injection, schedule: Q01DX009 (ip), vehicle: saline with Tween-80) 100 % of control; under setting [14], 95 % of control.
